Data from PubChem BioAssay (NCI).
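1) Cells in 96-well plates. 2) Compound, 48 h, 5 concentrations. 3) Linear interpolation between surrounding doses. 4) Unreached endpoint = highest concentration. GI50 is the concentration that inhibits growth by half. TGI marks complete inhibition of growth.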

Experiments:
Assay in all cases: DTP human tumour cell line panel, 48 h; in the data active = GI50 below about 0.43 µM; inactive = the rest
[1] = tested on: 786-0 renal
[2] = tested on: A498 renal
[3] = tested on: A549 NSCLC
[4] = tested on: ACHN renal
[5] = tested on: BT-549 breast
[6] = tested on: CAKI-1 renal
[7] = tested on: CCRF-CEM leukemia
[8] = tested on: COLO 205 colon
[9] = tested on: DU-145 prostate
[10] = tested on: EKVX NSCLC
[11] = tested on: HCC-2998 colon
[12] = tested on: HCT-116 colon
[13] = tested on: HCT-15 colon
[14] = tested on: HL-60(TB) leukemia
[15] = tested on: HOP-62 NSCLC
[16] = tested on: HOP-92 NSCLC
[17] = tested on: HS 578T breast
[18] = tested on: HT29 colon
[19] = tested on: IGROV1 ovarian
[20] = tested on: K-562 leukemia
[21] = tested on: KM12 colon
[22] = tested on: LOX IMVI melanoma
[23] = tested on: M14 melanoma
[24] = tested on: MALME-3M melanoma
[25] = tested on: MCF7 breast
[26] = tested on: MDA-MB-231 breast
[27] = tested on: MDA-MB-435
[28] = tested on: MDA-MB-468 breast
[29] = tested on: MOLT-4 leukemia
[30] = tested on: NCI-H226 lung
[31] = tested on: NCI-H23 lung
[32] = tested on: NCI-H460 lung
[33] = tested on: NCI-H522 lung
[34] = tested on: NCI/ADR-RES ovarian
[35] = tested on: OVCAR-3 ovarian
[36] = tested on: OVCAR-4 ovarian
[37] = tested on: OVCAR-5 ovarian
[38] = tested on: OVCAR-8 ovarian
[39] = tested on: PC-3 prostate
[40] = tested on: RPMI-8226 leukemia
[41] = tested on: RXF 393 renal
[42] = tested on: SF-268 CNS
[43] = tested on: SF-295 CNS
[44] = tested on: SF-539 CNS
[45] = tested on: SK-MEL-2 melanoma
[46] = tested on: SK-MEL-28 melanoma
[47] = tested on: SK-MEL-5 melanoma
[48] = tested on: SK-OV-3 ovarian
[49] = tested on: SN12C renal
[50] = tested on: SNB-19 CNS
[51] = tested on: SNB-75 CNS
[52] = tested on: SR leukemia
[53] = tested on: SW-620 colon
[54] = tested on: T-47D breast
[55] = tested on: TK-10 renal
[56] = tested on: U251 CNS
[57] = tested on: UACC-257 melanoma
[58] = tested on: UACC-62 melanoma
[59] = tested on: UO-31 renal

O=C(NO)c1ccc(CN2CCN(c3nc(-c4ccccc4)c4ccccc4n3)CC2)cc1
7.23 µM: TGI [28]
7.92 µM: TGI [44]
6.91 µM: TGI [47]
11 µM: TGI [19] | TGI [26] | TGI [43]
23.4 µM: TGI [25]
7.24 µM: TGI [59]
> 23.7 µM: TGI [2] | TGI [5] | TGI [7] | TGI [14] | TGI [15] | TGI [17] | TGI [18] | TGI [20] | TGI [21] | TGI [23] | TGI [27] | TGI [29] | TGI [36] | TGI [39] | TGI [40] | TGI [45] | TGI [46] | TGI [50] | TGI [51] | TGI [52] | TGI [55] | TGI [56] | TGI [57]
8.5 µM: TGI [32]
6.12 µM: TGI [22]
inactive: GI50 [1] 5.81 µM | GI50 [2] 8.03 µM | GI50 [3] 4.57 µM | GI50 [4] 4.06 µM | GI50 [5] 8.64 µM | GI50 [6] 5.15 µM | GI50 [7] 2.89 µM | GI50 [8] 5.13 µM | GI50 [9] 5.63 µM | GI50 [10] 4.94 µM | GI50 [11] 4.03 µM | GI50 [12] 2.95 µM | GI50 [13] 1.08 µM | GI50 [14] 6.99 µM | GI50 [15] 8.88 µM | GI50 [16] 5.02 µM | GI50 [17] 7.85 µM | GI50 [18] 5.75 µM | GI50 [19] 4.55 µM | GI50 [20] 5.8 µM | GI50 [21] 7.77 µM | GI50 [22] 2.97 µM | GI50 [23] 6.26 µM | GI50 [24] 5.2 µM | GI50 [25] 4.4 µM | GI50 [26] 3.4 µM | GI50 [27] 6.64 µM | GI50 [28] 2.74 µM | GI50 [29] 5.59 µM | GI50 [30] 4.09 µM | GI50 [31] 3.67 µM | GI50 [32] 3.66 µM | GI50 [33] 4.57 µM | GI50 [34] 3.24 µM | GI50 [35] 4.32 µM | GI50 [36] 4.3 µM | GI50 [37] 4.61 µM | GI50 [38] 4.78 µM | GI50 [39] 4.18 µM | GI50 [40] 5.6 µM | GI50 [41] 2.9 µM | GI50 [42] 6.59 µM | GI50 [43] 4.5 µM | GI50 [44] 3.97 µM | GI50 [45] 7.78 µM | GI50 [46] 6.83 µM | GI50 [47] 3.67 µM | GI50 [48] 5.61 µM | GI50 [49] 5.65 µM | GI50 [50] 6.27 µM | GI50 [51] 3.76 µM | GI50 [52] > 23.7 µM | GI50 [53] 4.8 µM | GI50 [54] 6.05 µM | GI50 [55] 7.04 µM | GI50 [56] 6.19 µM | GI50 [57] 6.94 µM | GI50 [58] 3.74 µM | GI50 [59] 3 µM
20.2 µM: TGI [6] | TGI [12]
7.89 µM: TGI [31]
9.97 µM: TGI [11]
11.5 µM: TGI [3]
13.3 µM: TGI [30]
17 µM: TGI [9]
14.1 µM: TGI [33]
12.4 µM: TGI [37]
23.2 µM: TGI [54]
7.86 µM: TGI [34]
20.7 µM: TGI [42]
19.4 µM: TGI [49]
7.77 µM: TGI [13]
11.8 µM: TGI [10]
21.6 µM: TGI [16]
15.1 µM: TGI [35] | TGI [53]
12.3 µM: TGI [8]
8.28 µM: TGI [58]
8.53 µM: TGI [41]
13.5 µM: TGI [48]
18.3 µM: TGI [24]
19.1 µM: TGI [1]
10.2 µM: TGI [4]
12.9 µM: TGI [38]
